Eight compounds from US20250197425A1, “2,6,9-TRISUBSTITUTED PURINES” (ASTRAZENECA AB, priority 2022, published 2025) can be followed below.

pIC50: −log10 of the molar value. Converted amounts (≈) assume the structure as drawn. Where two headings read alike, the source gives them in different places.

In data set [1] the test system is OVCAR3 cells. Put plainly: Cellular proliferation EdU assay, OVCAR3. The format is cell-based, human. The settings on record: Homo sapiens, OVCAR-3, 48 h, read-out: OVCAR3 IC50. Here is the method: (§1) Compounds were tested to assess inhibition of cellular proliferation in the breast cancer cell line MCF-7 and the CCNE1-amplified ovarian cell line OVCAR3.
(§2) MCF-7 and OVCAR3 cells in RPMI supplemented with 10% Fetal bovine serum were seeded into 384-well plates (Greiner, Kremsmunster, Austria; 781091), 30 μL/well, using a WellMate. The MCF7 and OVCAR3 cells were seeded at 800 and 1200 cells/well, respectively. Test compounds were added to the wells using an Echo 555 liquid handler and the plates were placed in incubator maintained at 37° C. and 5% CO2 and incubated for two days. On Day 2, an EdU assay was performed following the manufacturer's protocol (Thermo Fisher, C10351). The cells were read on an Acumen eX3 instrument. The IC50 values of test compounds were determined in Genedata by assessing the ratio of signal intensity at 488 nm to the area of signal at 405 nm.

The nature of data set [2]: Aqueous thermodynamic solubility, shake-flask. It is filed as physicochemical. The settings on record: aqueous phosphate buffer, 25 °C, pH 7.4, aqueous buffer, thermodynamic from solid, phosphate buffer 0.1 M, pH 7.4, 24 hours. Here is the method:
The DMSO was evaporated and the dried compounds were equilibrated in glass vials in aqueous phosphate buffer (0.1 M, pH 7.4) for 24 hours at 25° C. under constant stirring. The portion with the dissolved compound was then separated from the remainder through a double centrifugation with a tip wash in between to ensure that no residues of the dried compound were interfering. The solutions were diluted with purified water before quantification using UPLC/MS/MS.

Data set [3] concerns POLR2A Ser2 phosphorylation (CDK9). Put plainly: POLR2A Ser2 phosphorylation imaging assay in MCF-7 cells. The format is cell-based. The settings on record: Homo sapiens, MCF7, 2 h, read-out: POLR2A Ser2 phosphorylation IC50. The method, then:
Compounds were tested to assess their effect on CDK9 activity in a cellular context. […] During the cell cycle, CDK9 is a component of a multiprotein complex that phosphorylates POLR2A Ser2 which results in transcription elongation.
[…] were fixed by addition of 40 μL/well of 8% paraformaldehyde and incubated for 10 minutes at room temperature. The plates were washed three times with 50 μL/well PBS using a Biotek EL406 plate washer and then permeabilized for 10 minutes at room temperature in 0.3% Triton X100 in PBS. After washing as before, the plates were blocked using 30 μL/well of 2% BSA (w/v) in PBS-T for over 30 minutes at room temperature. […] After washing in PBS as before, leaving each well in 40 μL of PBS, the plates were sealed and imaged on a Cell Insight imaging system (Thermo) with a 10× objective and 2 fields of view per well. POLR2A Ser2levels were normalized to controls and the IC50 values of test compounds determined using Genedata Screener software.

Data set [4] deals with NPM phosphorylation (Thr199, CDK2-cyclin E complex). Put plainly: NPM phosphorylation imaging assay in MCF-7 cells. The format is cell-based. As to conditions: Homo sapiens, MCF7, 2 hours, 4N DNA cells. The method, then: Compounds were tested to assess the effects of CDK2 inhibition in a cellular context. […] During the cell cycle, the CDK2-cyclin E complex phosphorylates NPM at Thr199 which is a prerequisite step for initiation of centrosome duplication.
The cells were fixed by addition of 40 μL/well of 8% paraformaldehyde and incubated at room temperature for 10 minutes. The plates were washed three times with 50 μL/well PBS using a Biotek EL406 plate washer and then permeabilized for 10 minutes at room temperature in 0.3% Triton X100 in PBS. After washing as before, the plates were blocked using 30 μL/well of 2% BSA (w/v) in PBS-T for at least 30 minutes at room temperature. […] Cells containing 4N DNA were selected using the Hoechst staining. Phospho-NPM levels were normalized to controls and the IC50 values of test compounds determined using Genedata Screener software.

The subject of data set [5] is MCF-7 cells. Put plainly: Cellular proliferation EdU assay, MCF-7. As to conditions: Homo sapiens, MCF7, 48 h, read-out: MCF-7 IC50. The format is cell-based. The method, then:
as §1, §2

Data set [6] addresses CDK4:CCND1 (Homo sapiens (Human), UniProt P11802). Put plainly: NanoBRET assay in MCF-7 cells, CDK4. As to conditions: transfected MCF-7 cells, 2 hours, n = 1 or average. The format is cell-based. Here is the method:
(§3) Compounds were tested in breast cancer cell line MCF-7 to assess inhibition of CDK1, CDK2, and CDK4 activity. MCF-7 cells transiently transfected with CDK1:CCNB1, CDK2:CCNE1, or CDK4:CCND1 were harvested at a density of 1E5 cells/mL in complete media, seeded 20 μL/well into 384-well Greiner 784080 plates using a Multidrop Combi, and incubated overnight at 37° C. and 5% CO2. The next day media were evacuated from the wells using the Bluewasher centrifugal plate washer (Bluecatbio) and 10 μL/well phenol red free OptiMEM was then added using a Multidrop Combi. […] Immediately after compound addition, a Tecan HP300 dispensor was used to dispense the relevant NanoBRET™ tracer to the CDK1 wells (12.5 nl, 400 μM, NanoBRET™ TE Tracer K-9), the CDK2 wells (12.5 nl, 200 μM, NanoBRET™ TE Tracer K-9), and the CDK4 wells (8 nl, 100 μM, NanoBRET™ TE Tracer K-7) and the plates were incubated for 2 hours at 37° C. and 5% CO2. The plates were allowed to cool for 10 minutes at room temperature and 5 μL/well of TE Nano-Glo®Substrate/Inhibitor at 2.4 μM and 1:500 respectively (N2162 Promega) was added. The plates were incubated in subdued lighting for 10 minutes and then read on a Pherastar FS plate reader (BMG Technologies) using a NanoBRET™ filter module (460±80 nm/610 nm-LP). The ratio values were normalized to controls and the IC50 values of test compounds determined using Genedata Screener software.
On the technique in general: Bioluminescence resonance energy transfer reports proximity on the nanometre scale.

Data set [7] deals with CDK1:CCNB1 (Homo sapiens (Human), UniProt P06493). Briefly: NanoBRET assay in MCF-7 cells, CDK1. As to conditions: transfected MCF-7 cells, 2 hours, n = 1 or average. It is filed as cell-based. Here is the method: as §3
CDK1:CCNB1, sequence (P06493 whole entry): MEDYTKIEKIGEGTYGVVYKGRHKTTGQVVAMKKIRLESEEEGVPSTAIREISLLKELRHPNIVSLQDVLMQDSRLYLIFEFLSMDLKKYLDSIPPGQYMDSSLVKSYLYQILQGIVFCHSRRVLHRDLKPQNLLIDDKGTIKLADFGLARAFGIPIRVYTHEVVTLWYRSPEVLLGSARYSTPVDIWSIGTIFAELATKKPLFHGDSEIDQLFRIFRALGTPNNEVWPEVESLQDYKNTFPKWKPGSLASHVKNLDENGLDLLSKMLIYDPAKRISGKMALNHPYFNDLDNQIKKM
CDK1:CCNB1, sequence (P14635 whole entry partner): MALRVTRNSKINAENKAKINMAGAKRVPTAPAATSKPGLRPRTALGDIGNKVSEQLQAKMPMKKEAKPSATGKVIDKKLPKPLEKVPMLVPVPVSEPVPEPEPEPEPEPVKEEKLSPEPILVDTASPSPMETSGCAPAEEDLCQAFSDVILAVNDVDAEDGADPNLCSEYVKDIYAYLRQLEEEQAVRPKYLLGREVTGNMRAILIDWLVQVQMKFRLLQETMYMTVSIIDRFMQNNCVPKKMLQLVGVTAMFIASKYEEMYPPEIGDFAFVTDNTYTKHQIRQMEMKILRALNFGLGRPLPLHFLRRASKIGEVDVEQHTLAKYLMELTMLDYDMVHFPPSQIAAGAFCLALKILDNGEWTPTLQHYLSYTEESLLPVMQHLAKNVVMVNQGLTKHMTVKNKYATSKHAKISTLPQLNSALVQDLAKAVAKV
Data set [8] addresses CDK2:CCNE1 (Homo sapiens (Human), UniProt P24941). Briefly: NanoBRET assay in MCF-7 cells, CDK2. The format is cell-based. The settings on record: transfected MCF-7 cells, 2 hours, n = 1 or average. Here is the method: as §3, with “MCF-7 cells transiently transfected with CDK1:CCNB1, CDK2:CCNE1, or CDK4:CCND1 were harvested at a density of 1E5 cells/mL in complete media, seeded 20 μL/well into 384-well Greiner 784080 plates using a Multidrop Combi, and incubated overnight at 37° C. and 5% CO2.” left out, “The plates were allowed to cool for 10 minutes at room temperature and 5 μL/well of TE Nano-Glo®Substrate/Inhibitor at 2.4 μM and 1:500 respectively (N2162 Promega) was added.” left out

CDK4:CCND1, sequence (P11802 whole entry): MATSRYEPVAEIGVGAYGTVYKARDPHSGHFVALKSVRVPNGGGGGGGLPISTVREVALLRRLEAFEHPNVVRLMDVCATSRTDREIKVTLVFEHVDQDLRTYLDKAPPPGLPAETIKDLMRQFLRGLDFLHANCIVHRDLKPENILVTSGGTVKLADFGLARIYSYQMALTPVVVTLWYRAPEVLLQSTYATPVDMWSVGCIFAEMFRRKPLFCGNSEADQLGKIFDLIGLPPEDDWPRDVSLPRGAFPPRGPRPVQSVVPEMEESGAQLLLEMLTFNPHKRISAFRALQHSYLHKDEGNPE
CDK4:CCND1, sequence (P24385 whole entry partner): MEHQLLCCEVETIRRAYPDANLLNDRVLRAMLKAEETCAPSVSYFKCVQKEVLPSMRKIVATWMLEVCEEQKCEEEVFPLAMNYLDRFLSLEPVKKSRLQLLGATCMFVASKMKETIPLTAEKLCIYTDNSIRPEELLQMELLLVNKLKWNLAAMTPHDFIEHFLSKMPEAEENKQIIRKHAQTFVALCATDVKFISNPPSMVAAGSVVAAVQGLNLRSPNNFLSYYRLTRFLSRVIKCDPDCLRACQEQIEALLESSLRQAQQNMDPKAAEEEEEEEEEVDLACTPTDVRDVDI

Usually pIC50 stands for the negative decadic logarithm of the IC50, by convention in mol/L. As a reminder, the solubility is the concentration that dissolves in the medium under given conditions. Higher therefore signals much dissolved substance. As for `CC[C@H](Nc1nc(N[C@H]2CCN(S(=O)(=O)NCC(F)(F)F)C2)c2ncn(CC)c2n1)[C@@H](C)O` [Example 4, (S)-3-((9-ethyl-2-(((2R,3S)-2-hydroxypentan-3-yl)amino)-9H-purin-6-yl)amino)-N-(2,2,2-trifluoroethyl)pyrrolidine-1-sulfonamide], the pIC50 in data set [1] (EdU assay, two days) is 6.53; in data set [3] (MCF-7 cells, 2 hours), under 4.52; in data set [4] it was 6.79; in data set [5] (EdU assay, two days) it was 6.16. This compound also yielded a solubility at 24 h in data set [2] of 57 µM (≈ 28.2 µg/mL).

For `CCNS(=O)(=O)N1CC[C@H](Nc2nc(N[C@@H](CC)C(C)=O)nc3c2ncn3CC)C1` [Example 7, (S)—N-ethyl-3-((9-ethyl-2-(((S)-2-oxopentan-3-yl)amino)-9H-purin-6-yl)amino)pyrrolidine-1-sulfonamide], the pIC50 in data set [1] is 6.69; in data set [6] (CDK4 IC50, NanoBRET), 4.72; in data set [7] (CDK1 IC50, NanoBRET), 6.23; in data set [3], 4.62; in data set [5] it was 6.31; in data set [8], 7.89. In data set [2], this compound yielded a solubility at 24 h of 220 µM (≈ 96.5 µg/mL).

For `CCNS(=O)(=O)N1CC[C@H](Nc2nc(N[C@H](CC)C(C)=O)nc3c2ncn3CC)C1` [Example 12, (S)—N-ethyl-3-((9-ethyl-2-(((R)-2-oxopentan-3-yl)amino)-9H-purin-6-yl)amino)pyrrolidine-1-sulfonamide], the pIC50 in data set [1] is 5.81; in data set [6] (CDK4 IC50, NanoBRET) it was under 4.53; in data set [7] (CDK1 IC50, NanoBRET), 5.13; in data set [3], under 4.52; in data set [5], 5.47; in data set [8], 7.06. The compound further came in with a solubility at 24 h in data set [2] of 955 µM (≈ 419 µg/mL).

On to `CC(C)[C@H](CO)Nc1nc(N[C@@H]2CN(S(C)(=O)=O)C[C@H]2F)c2ncn(C(C)C)c2n1` [Example 33, (R)-2-((6-(((3R,4R)-4-fluoro-1-(methylsulfonyl)pyrrolidin-3-yl)amino)-9-isopropyl-9H-purin-2-yl)amino)-3-methylbutan-1-ol], for which the pIC50 was 6.06 in data set [1] (EdU assay, two days); 5.09 in data set [6] (NanoBRET, read-out: CDK4 IC50); 5.24 in data set [7] (NanoBRET, read-out: CDK1 IC50); under 4.52 in data set [3] (MCF-7 cells, 2 hours); 6.12 in data set [4]; 5.53 in data set [5] (EdU assay, two days). The compound also gave a pIC50 in data set [8] of 7.59.

Take `CC[C@H](CO)Nc1nc(N[C@H]2CCN(S(C)(=O)=O)C2)c2ncn(CC)c2n1` [Example 38, (R)-2-((9-ethyl-6-(((S)-1-(methylsulfonyl)pyrrolidin-3-yl)amino)-9H-purin-2-yl)amino)butan-1-ol]: the pIC50 in data set [1] (EdU assay, two days) was 6.11; in data set [6] (NanoBRET, read-out: CDK4 IC50) it was 5.22; in data set [7] (NanoBRET, read-out: CDK1 IC50), 5.98; in data set [3] (MCF-7 cells, 2 hours), under 4.52; in data set [4], 6.41; in data set [5] (EdU assay, two days), 5.64. The pIC50 in data set [8] was 7.68.

`CC[C@H](Nc1nc(N[C@H]2CCN(S(=O)(=O)NC)C2)c2ncn(CC)c2n1)C(C)=O` [Example 45, (S)-3-((9-ethyl-2-(((S)-2-oxopentan-3-yl)amino)-9H-purin-6-yl)-amino)-N-methylpyrrolidine-1-sulfonamide]: the negative-log IC50 (pIC50) in data set [1] (EdU assay, two days) is 6.44; in data set [6] (CDK4 IC50, NanoBRET) it was under 4.53; in data set [7] (CDK1 IC50, NanoBRET) it was 5.72; in data set [3] (MCF-7 cells, 2 hours) it was under 4.57; in data set [5] (EdU assay, two days) it was 6.03; in data set [8], 7.41.

Take `CC[C@H](Nc1nc(N[C@H]2CCN(S(=O)(=O)NC)C2)c2ncn(CF)c2n1)[C@@H](C)O` [Example 54, (S)-3-((9-(fluoromethyl)-2-(((2R,3S)-2-hydroxypentan-3-yl)amino)-9H-purin-6-yl)amino)-N-methylpyrrolidine-1-sulfonamide]: the pIC50 in data set [1] (EdU assay, two days) was 6.12; in data set [3] (MCF-7 cells, 2 hours), under 4.52; in data set [4], 6.48; in data set [5] (EdU assay, two days), 5.86. The same compound had a solubility at 24 h in data set [2] of 593 µM (≈ 255 µg/mL).

Turning to `CC[C@H](Nc1nc(N[C@H]2CCN(S(=O)(=O)NC)C2)c2ncn(C(F)F)c2n1)[C@@H](C)O` [Example 55, (S)-3-((9-(difluoromethyl)-2-(((2R,3S)-2-hydroxypentan-3-yl)amino)-9H-purin-6-yl)amino)-N-methylpyrrolidine-1-sulfonamide], the pIC50 was 6.83 in data set [1] (EdU assay, two days); 4.84 in data set [3] (MCF-7 cells, 2 hours); 6.85 in data set [4]; 6.29 in data set [5] (EdU assay, two days). The solubility at 24 h in data set [2] was over 1000 µM.
